Laboratory results reported in patent US20240118268A1, “BIOMARKERS ON CELLULAR ENDOCRINE MODELS FOR ENDOCRINE DISRUPTION ASSESSMENT” (priority 2020, published 2024).
Where two headings read alike, the source gives them in different places.

Experiments:
[1] = Neutral red cell viability of JEG-3 cells with SLS or PFOA in 10% or 2.5% FBS; conditions: human
Description: (§1) The choriocarcinoma-derived JEG-3 cell-line (ATCC® HTB-36™, Manassas, VA, USA), was grown as recommended by ATCC: Minimum Essential Medium Eagle's medium supplemented with 10% fetal bovine serum, 2 mM of glutamine, 50 IU/mL of penicillin and 50 IU/mL of streptomycin. Cells were detached using trypsin, counted, and then seeded at 80,000 cells/mL in 96-well microplates (200 μL by well) and Nunc® Lab-Tek® II Chamber Slide™ system for immunostaining.
(§2) Cells were incubated with sodium lauryl sulfate or perfluorooctanoic acid diluted in culture medium supplemented with either 2.5% or 10% FBS. After 24 hours, cell viability was evaluated using the neutral red assay. Neutral Red solution at 0.4% in water was diluted in culture medium with a ratio of 1:79 to give a final concentration of 50 μg/mL. Neutral Red was distributed in the plates for a 3-hour incubation time at 37° C. The cells were then rinsed with PBS to remove any remaining unincorporated dye. The dye was then released from the cells using a lysis solution (1% acetic acid, 50% ethanol and 49% H2O) and the fluorescence was measured (λex=540 nm, λem=600 nm) using Spark microplate fluorometer (Tecan, Mannedorf, Switzerland).

[2] = test system: JEG-3 cells; test: as above; conditions: for living cells: 2.5% FBS, 24 h
Description: as §1, §2

[3] = test system: JEG-Tox cells; test: Chromatin condensation (Hoechst 33342) as a hallmark of apoptosis; assay type: cell-based, human; conditions: 24 h
Description: The UV fluorescent probe Hoechst 33342 enters living and apoptotic cells, intercalating into DNA. The fluorescent signal is proportional to chromatin condensation in apoptosis. The cells were incubated with Hoechst 33342 at 10 μg/mL for 30 minutes at room temperature. The fluorescence signal was read (λex=360 nm, λem=460 nm) using a cytofluorometer (Spark).

[4] = Neutral Red cell viability assay on JEG-Tox cells, 72 h; assay type: cell-based, human; conditions: human, 72 h, read-out: cell viability
Description: (§3) The JEG-3 human trophoblast cell line, derived from a human placental carcinoma, was obtained from the American Type Culture Collection (ATCC HTB-36). Cells were cultured in minimum Essential medium, supplemented with 10% fetal bovine serum (FBS), 1% L-glutamine, 0.5% penicillin and streptomycinin, in 75 cm2 polystyrene flasks. Cell cultures were maintained in a cell culture incubator (37° C., saturated humidity, 5% CO2). When the JEG-3 cells reached subconfluency, they were detached using trypsin-EDTA and counted. The cellular suspension was diluted and seeded either in 96-well microplates at a cellular density of 80,000 cells/mL or in 6-well microplates at 120,000 cells/mL, then kept at 37° C. for 24 h. The cells were incubated with EDCs according to example 1.
(§4) Cell viability was evaluated using the Neutral Red assay. The Neutral Red solution at 0.4% (m/v in water) was diluted in cell culture medium to obtain a working concentration of 50 μg/mL. […] The cells were then rinsed with PBS and lysed with a solution of acetic acid-ethanol (ethanol 50.6%, water 48.4% and acetic acid 1%). After homogenization, the fluorescence signal was scanned (λexc=540 nm, λem=600 nm) with a Tecan Spark microplate reader (Mannedorf, Switzerland). The cell viability was calculated compared to the control cells (the fluorescence of the control cells as 100% viability).

[5] = molecular target: T1, P2X7 receptor (Homo sapiens, UniProt Q99572); assay type: cell-based; conditions: for P2X7 receptor activation compared to control / P2X7 receptor activation (in words) / P2X7 activation (concentration): 72 h; for endocrine disruptor according to the definition of the European Union: JEG-3 cells in 2.5% serum, by measuring the activity of the P2X7 receptor; for P2X7 receptor activation (in words): JEG-Tox; for P2X7 activation (concentration): Table 4 summary
T1 construct: P2X7 receptor is expressed by human placenta and JEG-Tox; endogenous in cells; host or cells: JEG-3 human trophoblast cell line (ATCC HTB-36) cultured in 2.5% FBS (JEG-Tox)
T1 sequence (Q99572 1-595): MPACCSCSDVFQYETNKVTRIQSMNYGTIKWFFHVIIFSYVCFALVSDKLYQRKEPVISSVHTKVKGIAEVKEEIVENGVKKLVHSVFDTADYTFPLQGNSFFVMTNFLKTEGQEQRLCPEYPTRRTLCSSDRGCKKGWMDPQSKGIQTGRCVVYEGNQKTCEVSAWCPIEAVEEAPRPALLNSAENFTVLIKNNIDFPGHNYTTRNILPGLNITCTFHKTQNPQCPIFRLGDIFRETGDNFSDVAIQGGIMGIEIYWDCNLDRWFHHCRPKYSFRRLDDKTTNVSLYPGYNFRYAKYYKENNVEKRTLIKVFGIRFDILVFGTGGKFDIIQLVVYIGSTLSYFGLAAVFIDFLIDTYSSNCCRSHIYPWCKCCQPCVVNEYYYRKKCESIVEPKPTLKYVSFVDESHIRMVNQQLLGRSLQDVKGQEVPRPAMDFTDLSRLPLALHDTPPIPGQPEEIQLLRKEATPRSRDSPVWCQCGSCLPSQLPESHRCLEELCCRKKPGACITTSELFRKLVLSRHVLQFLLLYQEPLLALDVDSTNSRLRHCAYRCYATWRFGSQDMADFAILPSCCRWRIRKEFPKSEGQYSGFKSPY
Description: (§5) P2X7 cell death receptor activation was evaluated using the YO-PRO-1® assay (Rat et al. J Biol Methods. 2017 Jan. 20; 4(1):e64). YO-PRO-1® probe only enters into cells after P2X7 receptor activation-induced pore opening, and binds to DNA, emitting fluorescence. A 1 mM YO-PRO-1 stock solution was diluted at 1/500 in PBS just before use and distributed into the wells of the microplate. After a 10-minute incubation time at room temperature, fluorescence signal was read (λex=491 nm, λem=509 nm) with a Spark cytofluorometer.
as §5, with “al., 2017).” for “al. J Biol Methods. 2017 Jan. 20; 4(1):e64).”, “(λex=485” for “(λex=491”, “λem=531” for “λem=509”

[6] = test system: caspase-1; test: Caspase 1 activity, Caspase-Glo 1 Inflammasome Assay; assay type: cell-based, human; conditions: 72 h; for Casp-1 activation (concentration): Table 4 summary
Description: Caspase 1 activity was evaluated using the Caspase-Glo® 1 1 Inflammasome Assay kit. The assay was performed according to the manufacturer's instructions. Luminescence was quantified with a Spark microplate reader.
Caspase 1 activity was evaluated using the Caspase-Glo®1 Inflammasome Assay kit. The assay was performed according to the manufacturer's instructions. Luminescence was quantified with a Spark microplate reader.

[7] = test system: caspase-9; test: Caspase 9 activity, Caspase-Glo 9 Assay; assay type: cell-based, human
Description: Caspase 9 activity was evaluated using the Caspase-Glo® 9 Assay kit. The assay was performed according to the manufacturer's instructions. Luminescence was quantified with a Spark microplate reader.

[8] = test system: JEG-Tox cells; test: Reactive Oxygen Species (ROS) production, H2DCF-DA assay; assay type: cell-based, human; conditions: 48 h
Description: Intracellular ROS were measured using 2′,7′-dichlorodihydro-fluorescein diacetate (H2DCF-DA, Life Technologies), which is hydrolyzed by cell esterases in 2′,7′-dichlorodihydrofluorescein and oxidized by ROS in highly fluorescent 2′,7′-dichlorofluorescein. A 10 μM solution of H2DCF-DA was distributed into wells. After a 20-min incubation period at 37° C., the fluorescence signal was read (λex=485 nm, λem=535 nm) using a Spark microplate reader.

[9] = test system: JEG-Tox cells; test: Neutral Red cell viability assay on JEG-Tox cells, 72 h; assay type: cell-based, human; conditions: 72 h; for cytotoxicity (concentration): Table 4 summary, loss of viability >= 30% counted as cytotoxic
Description: as §3, §4

[10] = 50 μM (highest concentration), 72 h

Row | Structure (SMILES) | concentration at which chromatin condensation was initiated [3] | P2X7 receptor activation compared to control ([5]; 25 μM) | P2X7 receptor activation compared to control ([5]; 50 μM) | endocrine disruptor according to the definition of the European Union [5] | caspase-1 activity compared to control ([6]; 50 μM) | caspase-9 activity compared to control [7, 10] | cytotoxicity (concentration) [9] | P2X7 receptor activation (in words) [5] | P2X7 activation (concentration) [5] | effect on caspase-1 activity [6] | Casp-1 activation (concentration) [6] | further results
1 | O=C(O)C(F)(F)C(F)(F)C(F)(F)C(F)(F)C(F)(F)C(F)(F)C(F)(F)F [PFOA, perfluorooctanoic acid] | 20 µg/mL | – | – | – | – | – | – | – | – | – | – | viability at 24 h, 120 μg/mL [1]: 85%; living cells ([2]; 80 μg/mL): 68%; living cells ([2]; 120 μg/mL): 27%; concentration at which cytotoxicity was revealed ([2]; diluted in 2.5% FBS): 200 µM; concentration at which only a slight loss of cell viability was observed ([2]; diluted in 10% FBS): 300 µM
2 | Oc1ccc(Cc2ccc(O)cc2)cc1 [bisphenol F, Bisphenol F] | 5 µg/mL | 1.24 fold change | 1.46 fold change | corresponds also to an endocrine disruptor | 2.61 fold change | 1.67 fold change | – | – | – | – | – | viability at 72 h, 100 µM [4]: 64%; caspase-1 activity compared to control ([6]; 25 μM): 1.60 fold change; caspase-9 activity compared to control ([7]; 25 μM, 72 h): 1.47 fold change; ROS production compared to control ([8]; 25 μM): 2.5 fold change; ROS production compared to control ([8]; 50 μM): 2.5 fold change
3 | CCCCC(CC)COC(=O)c1ccccc1C(=O)OCC(CC)CCCC (stereo not shown) [DEHP, Di(2-ethylhexyl)phtalate] | – | – | – | – | – | – | 50 µM | triggered P2X7 receptor activation | 10 µM | no effect | no | viability at 72 h, 50 µM ([4]; JEG-Tox cells, 50 μM): 25%; P2X7 receptor activation compared to control ([5]; 10 μM): 1.16 fold change; caspase-9 activity compared to control ([7]; 10 μM): 1.20 fold change
4 | CC(C)(c1ccc(O)cc1)c1ccc(O)cc1 [bisphenol A, Bisphenol A] | – | 1.26 fold change | 1.34 fold change | is an endocrine disruptor | 1.57 fold change | 1.28 fold change | No | triggered P2X7 receptor activation | 5 to 20 µM | activated caspase-1 | 20 µM | viability at 72 h, 100 µM ([4]; JEG-Tox cells): 18%; concentration up to which no loss of cell viability was observed [9]: up to 20 μM; P2X7 receptor activation compared to control ([5]; 20 μM): 1.21 fold change; caspase-1 activity compared to control ([6]; highest concentration tested): 1.64 fold change; effect on ROS production [8]: no effect
